The structures appear in SMILES notation. pIC50: −log10 of the molar value. Calls of active or inactive are those of the source.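 Rule for the calls: active = compounds whose IC50 against parasite growth in infected mouse cells is below 50000 nM; inactive = the rest.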

This experiment deals with T. cruzi Tulahuen in NIH-3T3, beta-gal fluorescence, 4 d. The experiment can be described thus: T. cruzi intracellular growth inhibition, cell-based (AID 1159559).

Broadly, the pIC50 is the IC50 on a negative log10 scale, so that one unit is a factor of ten. For the molecule `NCc1ccc2c(Cl)cc(Cl)c(O)c2n1`, the pIC50 is 5.60.

As for `O=S(=O)(c1ccccc1C(F)(F)F)N1CCN(Cc2ccc(-n3ccnc3)cc2)CC1`, the pIC50 was 6.60.

For `COc1cc(-c2nc(N3CCOCC3)sc2-c2ccnc(NC3CCOCC3)n2)ccc1Cl`, the pIC50 is 6.60.

Regarding `COc1cccc(CCNC(=O)C(c2cn[nH]c2)N2CCN(c3ccc(Cl)cc3)CC2)c1` (stereo unspecified), the pIC50 is 7.70.

For `Cc1nn(-c2nc3ccccc3s2)c2c1C(c1ccc(OCC(N)=O)cc1)SCC(=O)N2` (stereo unspecified), the pIC50 was 5.30.

With `CC(C)c1nn(-c2nc(N)nc(-c3ccccn3)n2)c(N)c1C1CCCCC1`, the negative-log IC50 (pIC50) is 5.70.

Consider `Cc1nn(-c2nc(N)nc(-c3ccccn3)n2)c(N)c1-c1ccccc1`, for which the pIC50 is 5.40.

As for `Cc1ccc(NC(=O)c2ccc([N+](=O)[O-])s2)cc1S(=O)(=O)N1CCOCC1`, the pIC50 is 6.70.

In the case of `Cc1cc(C)nc(N2CCC(N(Cc3cccnc3)C(=O)c3cccc(C#N)c3)CC2)n1`, the pIC50 is 6.49.

For the molecule `O=C(NCC1CCCCC1)c1cc(=O)c2ccccc2o1`, the pIC50 was 6.40.

Take `CNS(=O)(=O)c1ccccc1Nc1nc(Nc2ccnn2C)ncc1Cl`: the pIC50 is 6.40.

`CN(C)c1ncc(-c2cncn2CCOc2ccc(Cl)cc2)cn1`: the pIC50 was 6.70.

`COc1ccc(C2CC(c3ccccc3Cl)=NN2C(=O)CNC(=O)C2CCCC2)cc1` (stereo unspecified): the pIC50 is 5.49.

What is called IC50 is the midpoint of a concentration-inhibition curve. With `CCC(=O)Nc1ccccc1C(=O)Nc1ccccn1`, the IC50 was > 50000 nM (inactive).

For `CC(=O)Nc1cccc(Nc2ncnc3nc[nH]c23)c1`, the IC50 is > 50000 nM (inactive).

For `CCOc1ccc(NC(=O)C=Cc2ccc(CC)o2)cc1`, the negative logarithm of the IC50 (pIC50) was 5.70.

Take `COc1cccc(C(=O)[C@H]2C[C@@H]2CN(Cc2ccccn2)Cc2ccccn2)c1`: the pIC50 was 5.89.

Regarding `CCn1c(NC(=O)Cc2ccc(F)cc2)nc2ccccc21`, the pIC50 is 5.30.

For the molecule `O=[N+]([O-])c1ccc(-c2nnn(-c3ccc(Cl)cc3)n2)o1`, the pIC50 is 6.60.

As for `COc1ccc(OC)c2c(=O)c(Cc3ccccc3)c(C)[nH]c12`, the pIC50 was 6.70.

On to `Nc1nc(-c2ccccn2)nc(N)c1Cc1c(F)cccc1Cl`, for which the pIC50 was 5.80.

With `O=C(Nc1nc(-c2ccccn2)cs1)c1ccc(S(=O)(=O)N2CCCCC2)cc1`, the pIC50 is 6.20.

Take `N#Cc1cc(-c2ccnc(Nc3cccc(CN4CCOCC4)c3)n2)ccc1NCCN`: the pIC50 is 5.10.

As for `COc1ccc(C(=O)Nc2cc(C(F)(F)F)ccc2N2CCOCC2)c(OC)c1`, the pIC50 was 6.00.

With `Oc1c(-c2n[nH]c(CCc3ccccc3)n2)ncc2cccnc12`, the pIC50 was 6.70.

Regarding `O=[N+]([O-])c1cccc(Nc2cncc(-c3ccccc3CO)c2)c1`, the pIC50 was 6.49.

`COc1cc(Nc2nccc(Nc3onc(C)c3C)n2)cc(S(=O)(=O)C2CCOCC2)c1`: the pIC50 is 5.20.

`Cc1ccc(NC(C)C(=O)Nc2ccc(C#N)cc2)cc1S(=O)(=O)N1CCCCC1` (stereo unspecified): the negative logarithm of the IC50 (pIC50) is 5.00.

For the molecule `N#Cc1c(Oc2cccc(Cl)c2)cccc1[N+](=O)[O-]`, the pIC50 is 6.49.

For the molecule `Cc1nc(N2CC(C)OC(C)C2)sc1C(=O)Nc1ccc2c(c1)OCO2` (stereo unspecified), the pIC50 is 5.70.

`Cc1cc(Nc2cc(C3CC3)[nH]n2)nc(N2CCC[C@H]2C(N)=O)n1`: the pIC50 was 6.89.

For `O=C(Nc1nc(-c2ccc(S(=O)(=O)N3CCOCC3)cc2)cs1)c1ccc([N+](=O)[O-])cc1`, the pIC50 is 6.00.

In the case of `Cc1cccc(Nc2nc(-c3ccccn3)cs2)n1`, the pIC50 was 6.20.

Take `CCN(C)Cc1ccc(N2CCC(NS(=O)(=O)c3ccc4c(c3)CCO4)CC2)nc1`: the pIC50 is 6.20.

In the case of `O=C(NCCc1ccccn1)C(c1cn[nH]c1)N1CCN(c2ccc(Cl)c(Cl)c2)CC1` (stereo unspecified), the negative logarithm of the IC50 (pIC50) was 7.00.

For the molecule `CCCN(Cc1ccc(OC)c(OC)c1)Cc1cc(=O)c2c(C)cc(C)cc2[nH]1`, the negative logarithm of the IC50 (pIC50) is 5.70.

Turning to `CCN(CC)c1ccc(S(=O)(=O)N(CC)CC)c2nonc12`, the negative-log IC50 (pIC50) was 4.60.

`Cc1cc(N2CCc3ccccc3C2)nc(Nc2ccc(S(=O)(=O)N3CCOCC3)cc2)n1`: the IC50 is > 50000 nM (inactive).

For `Cc1cc(N(C)C)nc(Nc2ccccc2C)n1`, the pIC50 was 5.80.

Turning to `O=c1cc(CSc2ccc(Cl)cc2)nc(-c2ccccn2)[nH]1`, the pIC50 is 6.00.

Turning to `Cc1c(C(=O)NCCCCn2ccnc2)oc2c(C)cccc12`, the negative-log IC50 (pIC50) is 6.70.

For `COc1ccc2ncc(=O)n(CCN3CC[C@H](NCc4ncc(Cl)c5[nH]ncc45)[C@H](O)C3)c2n1`, the pIC50 is 5.40.

Regarding `COc1cccc(NS(=O)(=O)c2ccc3[nH]cc(C(=O)NCCC(C)C)c(=O)c3c2)c1`, the IC50 is > 50000 nM (inactive).

`Cc1nc(C(=O)Nc2ccc3c(c2)OCO3)nn1-c1ccc(F)cc1`: the pIC50 is 5.49.

As for `Clc1ccc(Sc2cnccc2N2CCOCC2)cc1`, the pIC50 is 6.89.

For the molecule `O=C(CCCn1cnc([N+](=O)[O-])n1)Nc1cccc(Cl)c1`, the pIC50 is 6.70.

Consider `Cn1nc(C(=O)N2CCc3ccccc32)c2c1CCS(=O)(=O)C2`, for which the pIC50 was 5.10.

With `Cc1[nH]nc(C(F)(F)F)c1NC(=O)CCn1cc(Cl)c([N+](=O)[O-])n1`, the pIC50 is 5.10.

On to `COc1ccccc1-c1c(C)[nH]c2nc(N)nc(C)c12`, for which the pIC50 is 6.80.

Take `O=C(CN(Cc1ccccn1)Cc1ccccn1)NC1Cc2ccccc2C1`: the pIC50 is 5.30.

`CNc1nc(C)nc(N2CCc3cc(C(=O)NCc4ccc(-c5nccn5C)cc4Cl)ccc32)n1`: the pIC50 is 5.30.

With `COc1ccc2nccc(NC(=O)C3(OC)CCN(CC(O)c4ccc5c(c4)OCCO5)CC3)c2n1` (stereo unspecified), the pIC50 is 6.60.

`Clc1ccc(CN2CCN(C3=NCCN3)CC2)cc1Cl`: the pIC50 was 5.89.

Consider `Cc1ccccc1NS(=O)(=O)c1ccc2[nH]cc(C(=O)NC3CCCC(C)C3C)c(=O)c2c1` (stereo unspecified), for which the pIC50 was 5.30.

On to `COc1ccc(OC)c(NC(=O)c2ccc([N+](=O)[O-])o2)c1`, for which the pIC50 is 5.49.

Consider `O=C(NCCc1csc(-c2ccc(F)cc2)n1)c1cccs1`, for which the pIC50 was 6.40.

With `O=C(Nc1n[nH]c(-c2ccccn2)n1)C1CC1c1ccccc1` (stereo unspecified), the pIC50 was 4.80.

For the molecule `CN(Cc1ccc(C(N)=O)cc1)C(c1ccc(F)cc1)c1cccnc1` (stereo unspecified), the pIC50 is 6.80.

For the molecule `COc1ccc(C(C)(C)C)cc1S(=O)(=O)n1ccnc1`, the pIC50 was 6.89.

In the case of `COc1ccc(CN2CCCCC2c2nc(-c3cccnc3)no2)cc1` (stereo unspecified), the pIC50 is 6.10.

Regarding `Cn1cc(CN2CCN(c3ccc4c(c3)CCN(C(=O)[C@H]3C[C@@H]3c3ccccc3)CC4)CC2)cn1`, the pIC50 was 5.80.

As to `Cn1nc(-c2ccc(NC(=O)Cc3ccccc3Cl)cc2)c2c(N)ncnc21`, the pIC50 was 5.70.

Take `CS(=O)(=O)c1ccc(CC(=O)Nc2nc(-c3ccc(Cl)s3)cs2)cc1`: the pIC50 was 6.40.

On to `COc1ccc(-c2cc(C)no2)cc1S(=O)(=O)Nc1ccc(C)c(C)c1`, for which the pIC50 was 5.30.

Take `CCc1c(C)nc(-n2nc(C)cc2NC(=O)COc2ccccc2F)[nH]c1=O`: the pIC50 was 6.20.

Regarding `COc1ccc(Nc2nc(-c3ccccn3)cc(N3CCCC(O)C3)n2)cc1` (stereo unspecified), the pIC50 is 6.20.

`CCCC(=O)N(Cc1ccccn1)c1nc2ccccc2s1`: the pIC50 was 6.89.

On to `COc1ccc(Nc2nc(-c3ccccn3)cs2)c(OC)c1`, for which the pIC50 is 5.40.

Take `CN(C)CCOc1ccc(N2CCN(S(=O)(=O)c3ccc(Cl)cc3)CC2)cc1`: the pIC50 was 6.20.

As for `COc1ccc2ncc(Cl)c(CCN3CC[C@@H](NCc4cc5c(cn4)OCS5)[C@H](O)C3)c2n1`, the negative-log IC50 (pIC50) was 6.89.

With `CC(=O)NC1(c2ccccc2)CCN(CC(=O)Nc2ccccc2-c2ccccc2)CC1`, the pIC50 is 5.89.

In the case of `COc1cnc2ccc(=O)n(CCN3CCC(NC(=O)c4ccc(Cl)cc4)CC3)c2c1`, the pIC50 was 6.89.

As for `Cc1ccc(S(=O)(=O)Nc2ccc(CN3CCN(C(=O)c4cccc(C#N)c4)CC3)cc2)cc1`, the pIC50 is 6.30.

Take `COc1ccc(NS(=O)(=O)c2cc(-c3cc(C)[nH]n3)ccc2C)cc1OC`: the pIC50 was 5.89.

With `Oc1c(-c2n[nH]c(Cc3ccc(F)cc3)n2)ncc2cccnc12`, the negative-log IC50 (pIC50) was 6.80.

For the molecule `Cc1ccc(Nc2nc(C3CCCN3Cc3ccn[nH]3)cs2)nc1` (stereo unspecified), the pIC50 is 6.10.

Turning to `O=C(Nc1ccc(Br)cn1)c1ccc(Cn2cnc([N+](=O)[O-])n2)cc1`, the pIC50 was 6.80.

In the case of `CC(C)c1cc(C(=O)N2CCCC(c3cc4ncccc4[nH]3)C2)on1` (stereo unspecified), the pIC50 is 5.70.

Regarding `NC(=O)c1ccccc1Nc1nc(NC2CCCCC2)nc2[nH]ccc12`, the pIC50 is 6.00.

On to `COc1ccc2nc(N(Cc3cccnc3)C(=O)C3CCC3)sc2c1`, for which the pIC50 was 6.89.

In the case of `COc1cccc2sc(CN(C)C(=O)C3CNCCN3c3ccc(F)cc3)c(C)c12` (stereo unspecified), the pIC50 was 6.40.

As for `O=C(CN(Cc1ccccn1)Cc1ccccn1)NCc1ccc(-c2csnn2)cc1`, the pIC50 was 5.40.

Consider `Cc1nc2c(-c3n[nH]c(-c4ccccc4N)n3)cccn2c1C`, for which the pIC50 is 5.40.

On to `N#Cc1ccc(C(=O)Nc2cccc(-c3cccc(CN4CCC(O)CC4)c3)c2)cc1`, for which the pIC50 was 5.30.

Regarding `Cc1nn2c(NCCCO)c3c(nc2c1-c1cccs1)CCC3`, the pIC50 is 4.80.

With `Cc1c(C#N)c([N+](=O)[O-])nn1Cc1cccc(Cl)c1Cl`, the pIC50 was 6.70.

As for `O=C(Nc1ccc(C(F)(F)F)cc1)Nc1cccc([N+](=O)[O-])c1`, the pIC50 is 6.00.

Regarding `C=CCN(Cc1cccs1)C(=O)CSc1nnc(-c2ccc3c(c2)OCO3)o1`, the pIC50 is 5.20.

As for `O=c1oc2ccccc2n1C1CCN(Cc2ccccc2-c2cccnc2)CC1`, the pIC50 was 6.30.

`Cc1[nH]n2c(=O)c3c(nc2c1-c1ccc(Cl)cc1)CCCC3`: the pIC50 was 6.40.

As to `COc1cc(Cl)c(C)cc1NC(=O)c1ccc([N+](=O)[O-])s1`, the pIC50 is 6.20.

`O=C(Nc1cccc(Cl)c1)Nc1ccc([N+](=O)[O-])cc1Cl`: the pIC50 was 5.89.

For the molecule `C=CCn1nc([N+](=O)[O-])nc1Oc1ccc(Cl)cc1Cl`, the pIC50 was 6.60.

Regarding `COCc1cc(Nc2ccc(Cl)cc2)nc(-c2ccccn2)n1`, the pIC50 was 5.80.

As for `Cc1cc(C)n(-c2nc(NC(C)C)nc(NC(C)(C)C)n2)n1`, the pIC50 is 5.70.

In the case of `FC(F)(F)c1cc(C2CCCN(Cc3c[nH]c4ccccc34)C2)nc2ncnn12` (stereo unspecified), the pIC50 was 5.80.

Source of the values: PubChem BioAssay AID1159559 (GlaxoSmithKline (GSK), 2015).
